“And” between values parts separate entries of the source, which are not always exact repeats. Identical values can stand only once.
Experiment: molar heat capacity at constant pressure
Conditions: 101.33 kPa, Crystal

Brc1cc(Br)cc(Br)c1 [1,3,5-tribromobenzene]
Conditions	molar heat capacity at constant pressure
6.52 K	1.72 J/K/mol
6.88 K	2.15 J/K/mol
6.95 K	2.19 J/K/mol
7.15 K	2.56 J/K/mol
7.61 K	3.13 J/K/mol
7.91 K	3.91 J/K/mol
8.43 K	4.55 J/K/mol
8.64 K	4.82 J/K/mol
9.26 K	5.6 J/K/mol
9.48 K	6.06 J/K/mol
9.98 K	6.73 J/K/mol
10 K	6.75 J/K/mol
10.55 K	7.4 J/K/mol
10.76 K	7.57 J/K/mol
11.09 K	8.13 J/K/mol
11.43 K	8.59 J/K/mol
12.2 K	9.56 J/K/mol
12.4 K	9.97 J/K/mol
13.02 K	11.12 J/K/mol
13.44 K	11.86 J/K/mol
13.52 K	11.96 J/K/mol
14.28 K	13.92 J/K/mol
14.41 K	14.32 J/K/mol
14.86 K	15.39 J/K/mol
15 K	15.69 J/K/mol
15.24 K	16.16 J/K/mol
15.97 K	17.16 J/K/mol
16.24 K	17.78 J/K/mol
16.42 K	18.22 J/K/mol
16.81 K	18.82 J/K/mol
17.75 K	20.23 J/K/mol
18.13 K	21.04 J/K/mol and 21.05 J/K/mol
18.35 K	21.29 J/K/mol
18.91 K	22.41 J/K/mol
19.3 K	22.84 J/K/mol
19.96 K	24.11 J/K/mol
20 K	24.16 J/K/mol
20.32 K	24.44 J/K/mol
20.36 K	25.02 J/K/mol
20.69 K	25.21 J/K/mol
20.91 K	25.52 J/K/mol
21.28 K	25.98 J/K/mol
21.33 K	26.05 J/K/mol
22.22 K	27.37 J/K/mol
22.85 K	28.05 J/K/mol
23.13 K	28.66 J/K/mol
23.5 K	29.01 J/K/mol
25 K	30.93 J/K/mol
25.43 K	31.5 J/K/mol
25.52 K	31.63 J/K/mol
25.66 K	31.94 J/K/mol
27.61 K	34.27 J/K/mol
28.08 K	34.74 J/K/mol
29.8 K	36.66 J/K/mol
30 K	36.88 J/K/mol
30.83 K	37.81 J/K/mol
32.02 K	39.23 J/K/mol
33.45 K	40.57 J/K/mol
34.29 K	41.49 J/K/mol
35.86 K	42.74 J/K/mol
36.6 K	43.58 J/K/mol
38.95 K	45.82 J/K/mol
40 K	46.88 J/K/mol
41.31 K	48.18 J/K/mol
43.74 K	50.35 J/K/mol
46.2 K	52.53 J/K/mol
48.69 K	54.78 J/K/mol
50 K	55.72 J/K/mol
51.22 K	56.59 J/K/mol
53.78 K	58.73 J/K/mol
56.38 K	60.57 J/K/mol
59 K	62.4 J/K/mol
60 K	63.1 J/K/mol
61.66 K	64.25 J/K/mol
64.34 K	66.1 J/K/mol
67.06 K	67.97 J/K/mol
69.79 K	69.75 J/K/mol
70 K	69.88 J/K/mol
72.55 K	71.4 J/K/mol
75.33 K	73.12 J/K/mol
78.14 K	74.71 J/K/mol
80 K	75.73 J/K/mol
80.95 K	76.25 J/K/mol
83.79 K	77.97 J/K/mol
84.19 K	78.04 J/K/mol
86.63 K	79.59 J/K/mol
87.47 K	79.75 J/K/mol
89.49 K	81.07 J/K/mol
90 K	81.22 J/K/mol
90.65 K	81.41 J/K/mol
92.36 K	82.26 J/K/mol
93.74 K	82.91 J/K/mol
95.25 K	83.54 J/K/mol
96.75 K	84.24 J/K/mol
98.15 K	85.01 J/K/mol
99.69 K	85.65 J/K/mol
100 K	85.83 J/K/mol
101.04 K	86.47 J/K/mol
102.61 K	87.46 J/K/mol
105.54 K	88.95 J/K/mol
108.48 K	90.22 J/K/mol
110 K	90.89 J/K/mol
111.43 K	91.51 J/K/mol
114.39 K	92.81 J/K/mol
117.36 K	94.15 J/K/mol
120 K	95.33 J/K/mol
120.34 K	95.48 J/K/mol
123.32 K	96.75 J/K/mol
126.31 K	98.04 J/K/mol
129.31 K	99.34 J/K/mol
130 K	99.63 J/K/mol
132.31 K	100.61 J/K/mol
135.32 K	101.87 J/K/mol
138.33 K	103.08 J/K/mol
140 K	103.77 J/K/mol
141.34 K	104.32 J/K/mol
144.36 K	105.54 J/K/mol
147.39 K	106.84 J/K/mol
150 K	107.74 J/K/mol
